Drawing on patent US20120172384A1, “HETEROCYCLYLAMINOPYRIMIDINES AS KINASE INHIBITORS” (priority 2009, published 2012), this text covers IC50 for 22 molecules.

Test [1] concerns the target T1, ZAP-70 (Homo sapiens, UniProt P43403).
T1 construct: endogenous in cells
T1 sequence (P43403 1-619): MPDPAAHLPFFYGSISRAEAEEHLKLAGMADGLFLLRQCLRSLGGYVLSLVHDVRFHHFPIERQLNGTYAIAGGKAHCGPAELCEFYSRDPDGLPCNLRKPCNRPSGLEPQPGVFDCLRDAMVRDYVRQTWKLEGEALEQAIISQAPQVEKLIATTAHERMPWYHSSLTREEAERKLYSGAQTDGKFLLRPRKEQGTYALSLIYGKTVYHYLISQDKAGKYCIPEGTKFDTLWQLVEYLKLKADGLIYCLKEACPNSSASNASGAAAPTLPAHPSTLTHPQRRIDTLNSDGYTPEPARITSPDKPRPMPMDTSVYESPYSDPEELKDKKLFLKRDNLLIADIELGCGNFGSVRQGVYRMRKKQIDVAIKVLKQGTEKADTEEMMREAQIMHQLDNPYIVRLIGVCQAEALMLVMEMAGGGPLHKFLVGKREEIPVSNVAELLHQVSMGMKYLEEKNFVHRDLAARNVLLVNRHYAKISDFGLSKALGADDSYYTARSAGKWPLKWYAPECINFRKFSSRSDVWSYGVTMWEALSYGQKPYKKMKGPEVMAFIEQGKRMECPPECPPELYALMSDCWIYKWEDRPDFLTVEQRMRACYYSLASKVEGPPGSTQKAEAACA
Nature of the test: ZAP-70 kinobeads assay. It is filed as binding. The following applies: cell lysate, dot blot with ZAP-70 antibody. The method, then:
(§1) The compounds of the present invention as described in the previous examples were tested in the ZAP-70 kinobeads assay as described (EP-A 1862802 and WO-A 2007/137867). Briefly, test compounds (at various concentrations) and the affinity matrix with the immobilized aminopyrido-pyrimidine ligand 24 are added to cell lysate aliquots and allowed to bind to the proteins in the lysate sample. After the incubation time the beads with captured proteins are separated from the lysate. Bound proteins are then eluted and the presence ZAP-70 is detected and quantified using a specific antibody in a dot blot procedure and the Odyssey infrared detection system.

For test [2], the target named is T2, JAK3 (Homo sapiens, UniProt P52333).
T2 construct: endogenous in cells
T2 sequence (P52333 1-1124): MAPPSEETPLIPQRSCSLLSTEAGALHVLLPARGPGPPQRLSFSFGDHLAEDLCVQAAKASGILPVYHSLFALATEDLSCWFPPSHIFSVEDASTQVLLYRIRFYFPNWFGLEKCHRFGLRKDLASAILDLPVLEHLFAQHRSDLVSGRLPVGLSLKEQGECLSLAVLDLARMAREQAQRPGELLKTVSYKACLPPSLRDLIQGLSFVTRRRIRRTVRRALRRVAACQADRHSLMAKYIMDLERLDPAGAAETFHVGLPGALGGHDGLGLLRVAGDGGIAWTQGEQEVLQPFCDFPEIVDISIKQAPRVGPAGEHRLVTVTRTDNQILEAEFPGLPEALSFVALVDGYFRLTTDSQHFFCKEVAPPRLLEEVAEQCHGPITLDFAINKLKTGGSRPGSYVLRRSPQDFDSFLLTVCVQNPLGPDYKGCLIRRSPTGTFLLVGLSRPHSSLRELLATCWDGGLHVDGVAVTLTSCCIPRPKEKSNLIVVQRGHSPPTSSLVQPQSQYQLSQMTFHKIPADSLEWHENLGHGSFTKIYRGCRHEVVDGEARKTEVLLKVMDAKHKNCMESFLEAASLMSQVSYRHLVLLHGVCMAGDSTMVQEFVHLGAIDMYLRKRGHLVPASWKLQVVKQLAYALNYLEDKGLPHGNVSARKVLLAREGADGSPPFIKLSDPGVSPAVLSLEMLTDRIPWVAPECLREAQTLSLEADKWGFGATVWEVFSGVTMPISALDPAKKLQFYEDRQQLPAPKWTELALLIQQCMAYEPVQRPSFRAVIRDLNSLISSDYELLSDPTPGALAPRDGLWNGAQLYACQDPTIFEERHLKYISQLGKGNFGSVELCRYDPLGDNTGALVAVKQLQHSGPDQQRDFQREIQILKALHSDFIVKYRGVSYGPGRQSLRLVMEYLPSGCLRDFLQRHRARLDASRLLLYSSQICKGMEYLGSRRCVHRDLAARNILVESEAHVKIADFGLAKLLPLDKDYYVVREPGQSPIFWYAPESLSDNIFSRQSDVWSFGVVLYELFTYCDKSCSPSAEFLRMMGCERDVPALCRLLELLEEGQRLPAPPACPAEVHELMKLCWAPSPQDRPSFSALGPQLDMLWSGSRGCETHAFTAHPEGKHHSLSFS
In words: JAK3 kinobeads assay. The class given is binding. The following applies: cell lysate, dot blot with JAK3 specific antibody. As to the method: as §1
Compounds were tested by the procedure described in Example 102 but using a JAK3 specific antibody (Cell Signaling Technology, Inc., Danvers, US, catalogue number 3775) instead of a ZAP70 antibody.

The term IC50 denotes the concentration at which inhibition is half-maximal. Lower therefore signals higher potency.

As for `Cn1ccc(Nc2ncc(Cl)c(Nc3ccccc3NS(C)(=O)=O)n2)n1` [Example 16, N-(2-(5-chloro-2-(1-methyl-1H-pyrazol-3-ylamino)pyrimidin-4-ylamino)phenyl)methanesulfonamide], the IC50 in test [1] is 100 to 1000 nM; in test [2], at most 100 nM.
On the same counts, the results for `COc1ccc(Nc2nc(Nc3cnn(C)c3)ncc2F)c(NS(C)(=O)=O)c1` [Example 21, N-(2-(5-fluoro-2-(1-methyl-1H-pyrazol-4-ylamino)pyrimidin-4-ylamino)-5-methoxyphenyl)methanesulfonamide] are 100 to 1000 nM and at most 100 nM.
In the same order, the values of `COc1ccc(Nc2nc(Nc3cc(C)nn3CCO)ncc2Cl)c(NS(C)(=O)=O)c1` [Example 94, N-(2-((5-chloro-2-((1-(2-hydroxyethyl)-3-methyl-1H-pyrazol-5-yl)amino)pyrimidin-4-yl)amino)-5-methoxyphenyl)methanesulfonamide] are 100 to 1000 nM and 1000 to 10000 nM.
With `COc1ccc(Nc2nc(Nc3cn[nH]c3)ncc2F)c(NS(C)(=O)=O)c1` [Example 24, N-(2-(2-(1H-pyrazol-4-ylamino)-5-fluoropyrimidin-4-ylamino)-5-methoxyphenyl)methanesulfonamide], the IC50 in test [1] was 100 to 1000 nM; in test [2], at most 100 nM.
Take `COc1ccc(Nc2nc(Nc3nonc3C)ncc2Cl)c(NS(C)(=O)=O)c1` [Example 31, N-(2-(5-chloro-2-(4-methyl-1,2,5-oxadiazol-3-ylamino)pyrimidin-4-ylamino)-5-methoxyphenyl)methanesulfonamide]: the IC50 in test [1] and in test [2] was 1000 to 10000 nM each time.
As for `CS(=O)(=O)Nc1ccccc1Nc1nc(Nc2cn[nH]c2)ncc1F` [Example 23, N-(2-(2-(1H-pyrazol-4-ylamino)-5-fluoropyrimidin-4-ylamino)phenyl)methanesulfonamide], the results for the IC50 in test [1] and in test [2] were 100 to 1000 nM and at most 100 nM, respectively.
As to `Cn1cc(Nc2ncc(Br)c(Nc3ccccc3NS(C)(=O)=O)n2)cn1` [Example 41, N-(2-(5-bromo-2-(1-methyl-1H-pyrazol-4-ylamino)pyrimidin-4-ylamino)phenyl)methanesulfonamide], the IC50 is 100 to 1000 nM in test [1] and at most 100 nM in test [2].
On the same counts, the results for `COc1ccc(Nc2nc(Nc3cc(C)nn3C)ncc2Cl)c(NS(C)(=O)=O)c1` [Example 8, N-(2-(5-chloro-2-(1,3-dimethyl-1H-pyrazol-5-ylamino)pyrimidin-4-ylamino)-5-methoxyphenyl)methanesulfonamide] are at most 100 nM and at most 100 nM.
On the same counts, the results for `CCn1ncc(Nc2ncc(Cl)c(Nc3ccc(OC)cc3NS(C)(=O)=O)n2)c1C` [Example 77, N-(2-((5-chloro-2-((1-ethyl-5-methyl-1H-pyrazol-4-yl)amino)pyrimidin-4-yl)amino)-5-methoxyphenyl)methanesulfonamide] are at most 100 nM and 100 to 1000 nM.
In the same order, the values of `COc1ccc(Nc2nc(Nc3nonc3OC)ncc2Cl)c(NS(C)(=O)=O)c1` [Example 17, N-(2-(5-chloro-2-(4-methoxy-1,2,5-oxadiazol-3-ylamino)pyrimidin-4-ylamino)-5-methoxyphenyl)methanesulfonamide] are 1000 to 10000 nM and 1000 to 10000 nM.
On to `COc1ccc(Nc2nc(Nc3cnn(C)c3)ncc2Cl)c(NS(C)(=O)=O)c1` [Example 6, N-(2-(5-chloro-2-(1-methyl-1H-pyrazol-4-ylamino)pyrimidin-4-ylamino)-5-methoxyphenyl)methanesulfonamide], for which the half-inhibitory concentration (IC50) in test [1] and in test [2] was at most 100 nM throughout.
Take `COc1ccc(Nc2nc(Nc3ccnn3C)ncc2Cl)c(NS(C)(=O)=O)c1` [Example 5, N-(2-(5-chloro-2-(1-methyl-1H-pyrazol-5-ylamino)pyrimidin-4-ylamino)-5-methoxyphenyl)methanesulfonamide]: the IC50 in test [1] was at most 100 nM; in test [2], 100 to 1000 nM.
For `COc1ccc(Nc2nc(Nc3cn(C)nc3C)ncc2Cl)c(NS(C)(=O)=O)c1` [Example 18, N-(2-(5-chloro-2-(1,3-dimethyl-1H-pyrazol-4-ylamino)pyrimidin-4-ylamino)-5-methoxyphenyl)methanesulfonamide], the IC50 in test [1] and in test [2] was at most 100 nM each time.
For `CCn1nc(C)cc1Nc1ncc(Cl)c(Nc2ccc(OC)cc2NS(C)(=O)=O)n1` [Example 12, N-(2-(5-chloro-2-(1-ethyl-3-methyl-1H-pyrazol-5-ylamino)pyrimidin-4-ylamino)-5-methoxyphenyl)methanesulfonamide], the values for the IC50 in test [1] and in test [2] were at most 100 nM and 100 to 1000 nM, respectively.
Turning to `CS(=O)(=O)Nc1ccccc1Nc1nc(Nc2ccon2)ncc1Cl` [Example 38, N-(2-(5-chloro-2-(isoxazol-3-ylamino)pyrimidin-4-ylamino)phenyl)methanesulfonamide], the IC50 in test [1] is 1000 to 10000 nM; in test [2], at most 100 nM.
As to `COc1ccc(Nc2nc(Nc3ccnn3C(C)C)ncc2Cl)c(NS(C)(=O)=O)c1` [Example 68, N-(2-((5-chloro-2-((1-isopropyl-1H-pyrazol-5-yl)amino)pyrimidin-4-yl)amino)-5-methoxyphenyl)methanesulfonamide], the IC50 in test [1] was 100 to 1000 nM.
Same read-out and setting: then `CCCCn1nc(C)cc1Nc1ncc(Cl)c(Nc2ccc(OC)cc2NS(C)(=O)=O)n1` [Example 86, N-(2-((2-((1-butyl-3-methyl-1H-pyrazol-5-yl)amino)-5-chloropyrimidin-4-yl)amino)-5-methoxyphenyl)methanesulfonamide], with at most 100 nM; and `CCc1nn(C)c(Nc2ncc(Cl)c(Nc3ccc(OC)cc3NS(C)(=O)=O)n2)c1C` [Example 15, N-(2-(5-chloro-2-(3-ethyl-1,4-dimethyl-1H-pyrazol-5-ylamino)pyrimidin-4-ylamino)-5-methoxyphenyl)methanesulfonamide], with 1000 to 10000 nM; and `CCCn1nc(C)cc1Nc1ncc(Cl)c(Nc2ccc(OC)cc2NS(C)(=O)=O)n1` [Example 69, N-(2-((5-chloro-2-((3-methyl-1-propyl-1H-pyrazol-5-yl)amino)pyrimidin-4-yl)amino)-5-methoxyphenyl)methanesulfonamide], with at most 100 nM.
Still for that read-out and setting: next, `COc1ccc(Nc2nc(Nc3c(C)noc3C)ncc2Cl)c(NS(C)(=O)=O)c1` [Example 19, N-(2-(5-chloro-2-(3,5-dimethylisoxazol-4-ylamino)pyrimidin-4-ylamino)-5-methoxyphenyl)methanesulfonamide]: 1000 to 10000 nM.
In test [1], `CCC(C)n1nc(C)cc1Nc1ncc(Cl)c(Nc2ccc(OC)cc2NS(C)(=O)=O)n1` (stereo not shown) [Example 27, N-(2-(2-(1-sec-butyl-3-methyl-1H-pyrazol-5-ylamino)-5-chloropyrimidin-4-ylamino)-5-methoxyphenyl)methanesulfonamide] came in with an IC50 of 100 to 1000 nM.
The same measure, in the same setting: then `COc1ccc(Nc2nc(Nc3cc(C)nn3C(C)C3CC3)ncc2Cl)c(NS(C)(=O)=O)c1` (stereo not shown) [Example 88, N-(2-((5-chloro-2-((1-(1-cyclopropylethyl)-3-methyl-1H-pyrazol-5-yl)amino)pyrimidin-4-yl)amino)-5-methoxyphenyl)methanesulfonamide], with 1000 to 10000 nM.
